Results from US10723730B2, “Solid forms of a selective CDK4/6 inhibitor” (PFIZER INC., priority 2013, dated 2020).

Tests used:
[1] = small-scale crystallization studies; format: physicochemical; details: 50 mg/mL, 10 mg scale, warmed to reflux
Description: A series of small-scale crystallization experiments was run to identify a potential recrystallization solvent system as well as to assess the impact of solvent on the shape of the free base primary particles isolated. An initial set of 14 screening studies were run on a 10 mg scale using sealed vials and an external heat source to warm the 50 mg/mL samples up to reflux temperature. Visual observation identified the samples that went into solution, and photomicroscopy was used to characterize the particles produced.

[2] = kinetic solubility measurements (dissolution temperature); format: physicochemical; details: 25 mg/mL, max 110° C.
Description: In an initial room temperature solubility screening study, a total of 23 solvents were screened. […] Subsequent targeted higher temperature solubility studies were conducted.

[3] = UPLC/MS testing of the saturated solution; format: physicochemical; details: saturated solution from experiments #3 (NMP) and #11 (10% n-BuOH/NMP) of Table 6
[4] = particle size analysis by laser diffraction; format: physicochemical
Description: Particle sizes for the recrystallized materials were assessed using laser diffraction methods. Laser diffraction is recognized by standards and guidance agencies including ISO and ASTM and is widely used to determine particle size distributions. In conducting the assessment, the sample is passed through a laser beam which results in laser light scattered at a range of angles. Detectors placed at fixed angles measure the intensity of light scattered at that position. A mathematical model (Mie or Fraunhoffer Theory) is then applied to generate a particle size distribution.
The particle size was analyzed using the laser diffraction (or small angle light scattering) technique by dispersing the dry sample powder with compressed air. Specifically, the particle size distribution was analyzed using the Sympatec HELOS RODOS system equipped with a Vibri dry powder feeder. The powder sample was dispersed with a dispersion pressure of 0.5 bar. In some instances, an Aspiros micro-dosing device was used, and the powder sample was dispersed with a dispersion pressure of 0.2 bar. A suitable lens was selected to cover the particle size range of each sample.

[5] = MASS (Material Adhesion Screen for Sticking) Punch; format: physicochemical; details: 10% API in standard blend (89.75% Avicel PH102, 0.25% magnesium stearate); up to 100 compressions
Excerpt: The MASS (Material Adhesion Screen for Sticking) Punch was developed in-house to quantitatively assess the sticking propensity of tablet formulations by weighing the amount of adhered powder on removable punch tip after a series of compressions. This test enables formulators to objectively and quickly evaluate the risk of punch sticking during drug product development and troubleshoot sticking observed during clinical tablet manufacturing. To prepare the sample for MASS Punch testing, 10 g of API was diluted in a lightly lubricated standard blend (10% API, 89.75% Avicel PH102 and 0.25% magnesium stearate) and bottle blended (500 mL amber glass bottle) for 500 rotations. The weight of powder adhered to the removable punch tip (½″ round flat faced) was assessed using a microbalance periodically up to 100 compressions of ˜250 mgW tablets at a target solid fraction of 0.85.

[6] = physical properties of free base isolated from standard salt break process; format: physicochemical; details: free base isolated directly from a standard salt break process
Excerpt: As punch sticking is related to API surface area, API particle size control is critical for minimizing sticking during drug product manufacturing. […] Free base API with similarly poor physical properties was produced by free basing of the existing isethionate salt API or by neutralization of the in situ salt formed in the final step of the API synthesis. In either process, small API primary particles were produced due to the rapid crystallization caused by the dramatic change in solubility with adjustment of the pH.

[7] = free base prepared by traditional salt break procedure; cited from earlier work

SMILES: CC(=O)c1c(C)c2cnc(Nc3ccc(N4CCNCC4)cn3)nc2n(C2CCCC2)c1=O [compound 1, 6-acetyl-8-cyclopentyl-5-methyl-2-(5-piperazin-1-yl-pyridin-2-ylamino)-8H-pyrido[2,3-d]pyrimidin-7-one]
- Results of recrystallization ([1]; Anisole): large particles (lathes or tomahawk shape)
- Results of recrystallization ([1]; Chlorobenzene): small irregular shaped particles
- Results of recrystallization ([1]; Cyclopentylmethyl ether): did not dissolve
- Results of recrystallization ([1]; DMF): small needle shaped particles
- Results of recrystallization ([1]; Mesitylene): small needle shaped particles
- Results of recrystallization ([1]; NMP): small irregular shaped particles
- Results of recrystallization ([1]; Propylene glycol): small irregular shaped particles
- Results of recrystallization ([1]; Pyridine): small lathe shaped particles
- Results of recrystallization ([1]; Sulfolane): small irregular shaped particles
- Results of recrystallization ([1]; Toluene): did not dissolve
- Results of recrystallization ([1]; Trifluorotoluene): did not dissolve
- Results of recrystallization ([1]; m-Xylene): small/medium tomahawk shaped particles
- Results of recrystallization ([1]; n-Butanol): did not dissolve
- Results of recrystallization ([1]; n-Butyl Acetate): did not dissolve
- Dissolution Temp. ([2]; 1:1:8 propylene glycol/n-BuOH/anisole (v/v)): 91.2 °C
- Dissolution Temp. ([2]; 2:1:7 propylene glycol/n-BuOH/anisole (v/v)): 84.1 °C
- Dissolution Temp. ([2]; 10% 1,4-butanediol/anisole (v/v)): 109.8 °C
- Dissolution Temp. ([2]; 10% n-BuOH/Anisole (v/v)): >110° ° C.
- Dissolution Temp. ([2]; 10% n-BuOH/NMP (v/v)): 103.7 °C
- Dissolution Temp. ([2]; 20% n-BuOH/Anisole (v/v)): 109.7 °C
- Dissolution Temp. ([2]; 25% 1,4-butanediol/anisole (v/v)): 104.8 °C
- Dissolution Temp. ([2]; 25% n-BuOH/NMP (v/v)): >110° ° C.
- Dissolution Temp. ([2]; 40% n-BuOH/Anisole (v/v)): 101.4 °C
- Dissolution Temp. ([2]; Anisole): >110° ° C.
- Dissolution Temp. ([2]; DMAc): >110° ° C.
- Dissolution Temp. ([2]; DMF): >110° ° C.
- Dissolution Temp. ([2]; DMSO): >110° ° C.
- Dissolution Temp. ([2]; NMP): 97.9 °C
- Dissolution Temp. ([2]; n-BuOH): >110° ° C.
- Dissolution Temp. ([2]; n-Butyl acetate): >110° ° C.
- chemical stability in solution (impurity peak by UPLC/MS) [3]: degradation occurred
- Particle size D [4, 3] ([4]; 0.2 Bar ASPIROS dispersion): 21.33 μm
- Particle size D [v, 0.1] ([4]; 0.2 Bar ASPIROS dispersion): 5.21 μm
- Particle size D [v, 0.5] ([4]; 0.2 Bar ASPIROS dispersion): 17.00 μm
- Particle size D [v, 0.9] ([4]; 0.2 Bar ASPIROS dispersion): 43.59 μm
- D90 ([4]; Table 11): approximately 45 μm
- MASS Punch profile (sticking propensity) [5]: positive response
- size of hard agglomerates [6]: approximately 500 microns
- bioavailability in animal studies [7]: low
